Test results: publication PMC3635668 (Analytical chemistry, 2013)
Like-named read-outs stand apart in the source and are kept apart here. Non-standard residues stand in square brackets, D forms with d. No end group written: not given here. Sta = CC(C)C[C@H](N)[C@@H](O)CC(=O)O

How the values were obtained:
BACE1 [1] = target: BACE1 (Homo sapiens, UniProt P56817); assay: SPR antibody-amplified BACE1 cleavage inhibition assay, immobilized APP; assay type: biochemical; conditions: for BACE1 inhibition, two-channel screening (in words): 30 nM compound 1 (CH1) or 2 μM compound 2 (CH2), Figure 2B
Sequence of BACE1 (Homo sapiens, UniProt P56817) (P56817 46-501): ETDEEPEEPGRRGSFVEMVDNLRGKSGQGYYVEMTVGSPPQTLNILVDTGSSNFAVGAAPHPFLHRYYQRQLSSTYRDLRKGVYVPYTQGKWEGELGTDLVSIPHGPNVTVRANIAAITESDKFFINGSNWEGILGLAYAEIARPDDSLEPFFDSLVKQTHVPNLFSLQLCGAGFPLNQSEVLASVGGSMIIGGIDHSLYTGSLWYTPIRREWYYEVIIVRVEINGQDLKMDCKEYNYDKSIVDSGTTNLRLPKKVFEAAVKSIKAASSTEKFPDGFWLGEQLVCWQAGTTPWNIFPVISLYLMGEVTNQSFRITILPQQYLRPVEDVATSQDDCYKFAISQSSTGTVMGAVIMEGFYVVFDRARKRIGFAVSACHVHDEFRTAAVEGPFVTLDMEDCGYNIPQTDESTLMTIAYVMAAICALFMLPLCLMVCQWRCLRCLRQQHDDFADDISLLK

BACE1 [2] = conditions: read-out: IC50 (ELISA); measured from ELISA; cited from earlier work
BACE1 [3] = conditions: read-out: IC50 (MS); determined by MS; cited from earlier work
[4] = 10 nM BACE1, SA-coated PEG chip

Substance: KTEEISEVN-Sta-VAEF (KTEEISEVN[Sta]VAEF) [Compound 1]
- BACE1 inhibition, two-channel screening (in words) (BACE1 [1]; [4]): exhibited inhibition of the BACE1 activity
- relative potency compound 1 vs compound 2 (in words) (BACE1 [1]; 30 nM compound 1 vs 2 μM compound 2, Figure 2B): much more potent inhibitor
- BACE1 inhibition (in words) (BACE1 [1]; 40 nM compound, 10 nM BACE1, SA-coated PEG chip, Figure 2A curve c): insufficient to completely halt the peptide cleavage by BACE1
- IC50 (BACE1 [2]): 30 nM

Substance: Ph-LL-4,5-dehydro-L-CHO [Compound 2]
- BACE1 inhibition, two-channel screening (in words) (BACE1 [1]; [4]): exhibited inhibition of the BACE1 activity
- BACE1 inhibition (in words) (BACE1 [1]; 2 μM compound 2, 10 nM BACE1, Ni-NTA chip, Figure 4 cycle 4): partially inhibits BACE1
- IC50 (BACE1 [3]): 3000 nM
